Laboratory results: patent US6291677A, “Compounds having activity as inhibitors of cytochrome P450RAI” (Allergan Sales, Inc., priority 2000, dated 2001)

Key:
RARγ = experiment: chimeric receptor transactivation assay, RARγ; type: cell-based; details: unit assumed
Excerpt: (§1) Assays described below measure the ability of a compound to bind to, and/or activate various retinoid receptor subtypes. When in these assays a compound binds to a given receptor subtype and activates the transcription of a reporter gene through that subtype, then the compound is considered an agonist of that receptor subtype. […] In the below described assays the ability of the compounds to bind to RARα, RARβ, RARγ,RXRα, RXRβ and RXRγ receptors, and the ability or inability of the compounds to activate transcription of a reporter gene through these receptor subtypes can be tested.
(§2) The results obtained in this assay are expressed in EC50 numbers, as they are also in the chimeric receptor transactivation assay. The results of ligand binding assay are expressed in Kd numbers.

RARα = experiment: chimeric receptor transactivation assay, RARα; type: cell-based; details: unit assumed
Excerpt: as §1, §2

RARβ = experiment: chimeric receptor transactivation assay, RARβ; type: cell-based; details: unit assumed
Excerpt: as §1, §2

skin of hairless mice = experiment: topical skin irritation test in hairless mice; type: in vivo, female hairless mice (Crl:SKH1-hrBR); details: once daily days 1 through 5, mean±SD
Excerpt: Mice were housed individually throughout the dosing period.
Doses are disclosed as nmol/25 g.
The grading scale used is as follows:
Values can range from 0-9.
Values can range from 0-8.

With `Cc1cc(C#Cc2ccc(C(=O)O)cc2)ccc1C1(OCC(C)(C)C)CC1` [Compound 89, 4-[4-[1-(2,2-Dimethylpropyloxy)-cyclopropyl]-3-methyl-phenylethynyl]-benzoic acid] the (EFFICACY) RAR γ (RARγ) was 46%, the (EFFICACY) RAR α (RARα) was 20% and the (EFFICACY) RAR β (RARβ) was 50%.

`CN(C1CC1)C1CCC(C)(C)c2cc(C#Cc3ccc(CC(=O)O)c(F)c3)ccc21` (stereo not shown) [Compound 18, [4-(5-(Cyclopropyl-methyl-amino)-8,8-dimethyl-5,6,7,8-tetrahydro-naphthalene-2-yl-ethynyl)-2-fluoro-phenyl]-acetic acid] was tested, and the “Cutaneous Toxicity Score (Blackjack Score)” value (shortened to “Cutaneous Toxicity Score”) (skin of hairless mice; 100 nmole) was 0 ± 0, the “Cutaneous Toxicity Score” value (skin of hairless mice; 300 nmole) was 1 ± 1 and the “Cutaneous Toxicity Score” value (skin of hairless mice; 1000 nmole) was 10 ± 2.

`CC1(C)CCC(=O)c2ccc(C#Cc3ccc(CC(=O)O)c(F)c3)cc21` [Compound 15, [2-Fluoro-4-(8,8-dimethyl-5-oxo-5,6,7,8-tetrahydro-naphthalene-2-yl-ethynyl)phenyl]-acetic acid] was tested, and the “Cutaneous Toxicity Score” value (skin of hairless mice; 100 nmole) was 1 ± 1 and the “Cutaneous Toxicity Score” value (skin of hairless mice; 1000 nmole) was 5 ± 2.

`CCc1cc(C#Cc2ccc(C(=O)O)cc2)ccc1C1(OCc2ccccc2)CC1` [Compound 93, 4-[4-(1-Benzyloxycyclopropy)-3-ethyl-phenylethynyl]-benzoic acid] was tested, and the (EFFICACY) RAR γ (RARγ) was 55%, the (EFFICACY) RAR α (RARα) was 114% and the (EFFICACY) RAR β (RARβ) was 39%.

Compound `COC1(c2ccc(C#Cc3ccc(C(=O)O)cc3)cc2)CC1` [Compound 69, 4-[4-(1-Methoxycyclopropyl)-phenylethynyl]-benzoic acid] has a (EFFICACY) RAR γ (RARγ) of 31%, a (EFFICACY) RAR α (RARα) of 10% and a (EFFICACY) RAR β (RARβ) of 50%.

`Cc1cc(C#Cc2ccc(C(=O)O)cc2)ccc1C1(OCc2ccccc2)CC1` [Compound 81, 4-[4-(1-Benzyloxycyclopropyl)-3-methyl-phenylethynyl]-benzoic acid] was tested, and the (EFFICACY) RAR γ (RARγ) was 67% and the (EFFICACY) RAR β (RARβ) was 80%.

`O=C(O)c1ccc(C#Cc2ccc(C3(NCc4ccccc4)CC3)cc2)cc1` [Compound 112] was tested, and the (EFFICACY) RAR β (RARβ) was 37%.

Compound `CC1(C)CCC(=O)c2ccc(C#Cc3ccc(C(=O)O)c(F)c3)cc21` [Compound 10, 2-Fluoro-4-(8,8-dimethyl-5-oxo-5,6,7,8-tetrahydro-naphthalen-2yl-ethynyl)-benzoic acid] has a (EFFICACY) RAR γ (RARγ) of 94%, a (EFFICACY) RAR α (RARα) of 146% and a (EFFICACY) RAR β (RARβ) of 86%.

`CC1(C)CN(C2CC2)Cc2ccc(C#Cc3ccc(CC(=O)O)c(F)c3)cc21` [Compound 22, [4-(2-Cyclopropyl-4,4-dimethyl-1,2,34-tetrahydro-isoquinolin-6-yl-ethynyl)-2-fluoro-phenyl]-acetic acid] was tested, and the “Cutaneous Toxicity Score” value (skin of hairless mice; 100 nmole) was 0 ± 0, the “Cutaneous Toxicity Score” value (skin of hairless mice; 300 nmole) was 0 ± 0 and the “Cutaneous Toxicity Score” value (skin of hairless mice; 1000 nmole) was 1 ± 1.

With `CC1(C)CCC(n2ccnc2)c2ccc(C#Cc3ccc(CC(=O)O)cc3)cc21` (stereo not shown) [Compound 137, [4-(5-Imidazol-1-yl-8,8-dimethyl-5,6,7,8-tetrahydro-naphthalen-2-yl-ethynyl)-phenyl]-acetic acid] the “Cutaneous Toxicity Score” value (skin of hairless mice; 100 nmole) was 1 ± 1, the “Cutaneous Toxicity Score” value (skin of hairless mice; 300 nmole) was 1 ± 1 and the “Cutaneous Toxicity Score” value (skin of hairless mice; 1000 nmole) was 5 ± 2.

For `CC(C)OC1(c2ccc(C#Cc3ccc(C(=O)O)cc3)cc2)CC1` [Compound 73, 4-[4-(1-Isopropoxycyclopropyl)-phenylethynyl]-benzoic acid], the (EFFICACY) RAR γ (RARγ) was 24% and the (EFFICACY) RAR β (RARβ) was 39%.

`CN(C1CC1)C1CCC(C)(C)c2cc(C#Cc3ccc(C(=O)O)c(F)c3)ccc21` (stereo not shown) [Compound 13, 4-[5-(Cyclopropyl-methyl-amino)-8,8-dimethyl-5,6,7,8-tetrahydro-naphthalene-2-yl-ethynyl]-2-fluoro benzoic acid] was tested, and the (EFFICACY) RAR γ (RARγ) was 9% and the (EFFICACY) RAR β (RARβ) was 6.6%.

`CC1(C)CC2(CC2)Oc2ccc(C#Cc3ccc(C(=O)O)c(F)c3)cc21` [Compound 44, 2-Fluoro-benzoic acid 4-[(3,4-dihydro-4,4-dimethylspiro[2H-1-benzopyran-2,1'-cyclopropane]-6-yl)ethynyl]-] was tested, and the (EFFICACY) RAR γ (RARγ) was 116%, the (EFFICACY) RAR α (RARα) was 138% and the (EFFICACY) RAR β (RARβ) was 100%.

`CCCN(CCC)C1(c2ccc(C#Cc3ccc(C(=O)O)cc3)cc2)CC1` [Compound 110, 4-[4-(1-Dipropylamino-cyclopropyl)-phenylethynyl]-benzoic acid] gave a (EFFICACY) RAR γ (RARγ) of 42% and a (EFFICACY) RAR β (RARβ) of 44%.

With `CC1(C)CC2(CC2)Oc2c(C3CC3)cc(C(=O)Oc3ccc(CC(=O)O)cc3)cc21` [Compound 58] the “Cutaneous Toxicity Score” value (skin of hairless mice; 100 nmole) was 0 ± 0, the “Cutaneous Toxicity Score” value (skin of hairless mice; 300 nmole) was 0 ± 0 and the “Cutaneous Toxicity Score” value (skin of hairless mice; 1000 nmole) was 0 ± 0.

For `CN(C1CC1)C1CCC(C)(C)c2cc(C#Cc3ccc(C(=O)O)cc3)ccc21` (stereo not shown) [Compound 3, 4-[(5-Cyclopropyl-methyl-amino)-8,8-dimethyl-5,6,7,8-tetrahydro-naphthalene-2yl-ethynyl]-benzoic acid], the (EFFICACY) RAR γ (RARγ) was 52%, the (EFFICACY) RAR α (RARα) was 28% and the (EFFICACY) RAR β (RARβ) was 54%.

Work on `CCCNC1(c2ccc(C#Cc3ccc(C(=O)O)cc3)cc2)CC1` [Compound 108, 4-[4-(1-Propylamino-cyclopropyl)-phenylethynyl]-benzoic acid] yielded a (EFFICACY) RAR γ (RARγ) of 10%, a (EFFICACY) RAR α (RARα) of 15% and a (EFFICACY) RAR β (RARβ) of 36%.

For `CC1(C)CC2(CC2)Oc2c(C3CC3)cc(C#Cc3ccc(CC(=O)O)c(F)c3)cc21` [Compound 50, 4-[(8-Cyclopropyl-3,4-dihydro-4,4-dimethylspiro[2H-1-benzopyran-2,1'-cyclopropane]-6-yl)ethynyl]-2-fluoro-benzeneacetic acid], the “Cutaneous Toxicity Score” value (skin of hairless mice; 100 nmole) was 1 ± 0, the “Cutaneous Toxicity Score” value (skin of hairless mice; 300 nmole) was 3 ± 2 and the “Cutaneous Toxicity Score” value (skin of hairless mice; 1000 nmole) was 8 ± 2.

`CC1(C)CC2(CC2)Oc2ccc(C#Cc3ccc(C(=O)O)cc3)cc21` [Compound 40, Benzoic acid, 4-[(3,4-dihydro-4,4-dimethylspiro[2H-1-benzopyran-2,1'-cyclopropane]-6-yl)ethynyl]-] showed a (EFFICACY) RAR γ (RARγ) of 140%, a (EFFICACY) RAR α (RARα) of 207% and a (EFFICACY) RAR β (RARβ) of 126%.

In the case of `CC1(C)CC(C)(C)c2cc(C#Cc3ccc(CC(=O)O)cc3)cc(C3CC3)c2O1` [Compound 36, [4-(8-Cyclopropyl-2,2,4,4-tetramethyl-chroman-6-yl-ethynyl)phenyl]acetic acid], the “Cutaneous Toxicity Score” value (skin of hairless mice; 100 nmole) is reported as 1 ± 1 and the “Cutaneous Toxicity Score” value (skin of hairless mice; 1000 nmole) is reported as 11 ± 0.

For `Cc1cc(C#Cc2ccc(C(=O)O)cc2)ccc1C1(OC(C)C)CC1` [Compound 85, 4-[4-(1-Isopropoxycyclopropyl)-3-methyl-phenylethynyl]-benzoic acid], the (EFFICACY) RAR γ (RARγ) was 65%, the (EFFICACY) RAR α (RARα) was 60% and the (EFFICACY) RAR β (RARβ) was 77%.

In the case of `CC1(C)CC2(CC2)Oc2c(C3CC3)cc(C#Cc3ccc(CC(=O)O)cc3)cc21` [Compound 48, Benzeneacetic acid, 4-[(8-cyclopropyl-3,4-dihydro-4,4-dimethylspiro[2H-1-benzopyran-2,1'-cyclopropane]-6-yl)ethynyl]-], the “Cutaneous Toxicity Score” value (skin of hairless mice; 100 nmole) is reported as 1 ± 1, the “Cutaneous Toxicity Score” value (skin of hairless mice; 300 nmole) is reported as 3 ± 1 and the “Cutaneous Toxicity Score” value (skin of hairless mice; 1000 nmole) is reported as 7 ± 2.

`CC1(C)CCC(=O)c2ccc(C#Cc3ccc(CC(=O)O)cc3)cc21` [Compound 5, 4-[(8,8-Dimethyl-5-oxo-5,6,7,8-tetrahydro-naphthalene-2-yl-ethynyl)-phenyl]-acetic acid] was tested, and the “Cutaneous Toxicity Score” value (skin of hairless mice; 100 nmole) was 0, the “Cutaneous Toxicity Score” value (skin of hairless mice; 1000 nmole) was 6 ± 3 and the (EFFICACY) RAR β (RARβ) was 36%.
